Experimental data published in patent publication US6653064B1, “Method for identifying compounds useful in the therapy of bone disorders” (Boehringer Ingelheim International GmbH, priority 1999, dated 2003).

Legend:
[1] = tested on: endogenous fra-1; assay: RT-PCR analysis of fra-1 transcripts in primary osteoblast cultures; type: cell-based, mice; conditions: wild-type osteoblasts, cultures 7 days after plating, not expressed without stimulation
Experimental: To further investigate the consequences of Fra-1 expression on osteoblasts, primary osteoblasts were prepared from the calvariae of neonatal (6-8 days old) mice and differentiated in vitro. Calvariae were sequentially digested for 10 minutes in α-MEM containing 0.1% collagenase and 0.2% dispase. Cells isolated by fractions 2 to 5 were combined as an osteoblastic cell population, expanded for 2 days in α-MEM with 10% FCS and replated at a density of 10^4 cells per cm^2. After reaching confluency, medium was supplemented with 5 mM β-glycerophosphate and 100 μg/ml ascorbic acid. There was no difference in the proliferation between wild-type and transgenic osteoblasts. The time course of differentiation was followed by ALP activity and by the deposition of mineralized extracelluar matrix. For ALP activity measurement, cells were washed with PBS and sonicated in 10 mM Tris-HCl buffer (pH 8.0). ALP activity in the lysate was measured using a calorimetric assay (Sigma). […] In transgenic cultures, areas of mineralized extracellular matrix monitored by alizarine red S staining were first observed at day 12, when no stained areas were present in wild-type cultures (FIG. 5b). […]
5′-GTACCGAGACTACGGGGAACCGG-3′ SEQ. […] Exogenous and endogenous fra-1 was detected in transgenic osteoblasts, irrespective of induction by phorbol myristate acetate (PMA) (FIG. 5c). […]

[2] = tested on: Fra-1 expression; conditions: substance known to induce Fra-1 expression (Yoshioka et al., 1995); cited from earlier work

SMILES	expression of endogenous fra-1 upon stimulation [1]	Fra-1 expression in cultured cells [2]
CCCCCCCCCCCCCC(=O)O[C@@H]1[C@@H](C)[C@@]2(O)[C@@H](C=C(CO)C[C@]3(O)C(=O)C(C)=C[C@@H]23)[C@@H]2C(C)(C)[C@]12OC(C)=O [PMA, phorbol myristate acetate]	induced	–
CC(C)(C)c1cc(O)ccc1O [tert-butylhydroquinone]	–	induce Fra-1 expression
